Data on eight compounds can be found in PMC8234864, “Early Effects of the Soluble Amyloid β25-35 Peptide in Rat Cortical Neurons: Modulation of Signal Transduction Mediated by Adenosine and Group I Metabotropic Glutamate Receptors” (International Journal of Molecular Sciences, 2021).

For test [1], the system named is rat cortical neurons exposed to Aβ25-35. Kind of test: Effect of receptor ligands on Aβ25-35 induced toxicity (MTT). The test is classed as cell-based. Particulars: ligand 100 µM added 30 min before Aβ25-35 (25 µM, 24 h). The method, then: (§1) Aβ25-35 and Aβ1-42 were water-soluble peptides, however, while Aβ25-35, the functional domain of Aβ required for both neurotrophic and neurotoxic effects, was directly added to neuronal cultures after its solubilisation, Aβ1-42 was solved in water and maintained for 24 h at 37 °C before its addition to promote its aggregation. To test the effect of mGluR ligands on cell death induced by Aβ in neuronal cultures, these drugs were added 30 min before the addition of Aβ25-35 and maintained during Aβ exposure. Unless otherwise indicated, all chemicals were dissolved in water.
(§2) Cell viability was determined on 96-well plates using an in vitro toxicology assay kit based on a mitochondrial-dependent reaction that transforms 3-[4,5-dimetylthiazol-2-yl]-2,5-diphenyltetrazolium bromide (MTT) into formazan crystals. Briefly, at the end of treatments, cells were incubated in culture medium with MTT solution (5 mg/mL) at 37 °C for 3 h. After incubation, MTT solubilization solution (10% Triton X-100 plus 0.1 M HCl in isopropanol anhydrous) was added into the wells to dissolve formazan crystals and the absorbance of each well was measured at 570 nm and 690 nm, according to the manufacturer’s instructions.

Test [2] concerns Group I mGluR/PLC signalling pathway. Nature of the test: Phospholipase C activity (IP3 accumulation), basal and DHPG-stimulated. The test is classed as cell-based, rat. The conditions noted are these: added 10 min before DHPG, control cells. On the procedure: This method was previously reported and is divided into two well-defined steps: IP3 accumulation: culture medium was discharged, and cells were washed twice with DMEM containing 20 mM HEPES, pH 7.4. After 20 min at 37 °C, different ligands were added to cells for 10 min at 37 °C to analyse their effect on PLC activity in a final reaction volume of 300 μL. The enzymatic reaction was stopped and cells lysed by adding 50 μL 2.8 M perchloric acid and placing plates on ice for 30 min. The medium was neutralized with 70 μ[…] Tris-HCl, 2 M KOH, and 60 mM EGTA, transferred to Eppendorf tubes and centrifuged at 12,000× g for 10 min. The supernatant was then collected to determine the IP3 level. IP3 level determination: IP3 levels in cells were determined as previously reported by Palmer and modified by […] [100]. Incubation of [^3H]IP3 (0.2 pmol; 3000-5000 cpm) in assay buffer (100 mM Tris-HCl, 4 mM EDTA, 4 mM EGTA, 4 mg/mL BSA, pH 9.0), binding protein (500-600 μg), and 25-50 μL of supernatant obtained from IP3 accumulation assay was carried out. Samples were incubated at 4 °C for 60 min and centrifuged at 12,000× g for 10 min. Pellets were suspended in 100 μL 0.2% SDS and transferred to scintillation vials to measure radioactivity. A standard curve was made with known [^3H]IP3 concentrations (0.25-10 μM). Nonspecific binding was determined in the presence of 10 μM unlabeled IP3. Binding protein was obtained from bovine suprarenal capsules according to Palmer's protocol.

A further test has as its system rat cortical neurons. Nature of the test: MTT reduction cell viability assay after Aβ exposure. Type of test: cell-based. Particulars: 25 µM, 24 h, MTT, positive control. On the procedure:
as §1, §2

Entries after “also recorded” stand apart in the source; their conditions may differ.

In the case of `CCNC(=O)[C@H]1O[C@@H](n2cnc3c(N)nc(NCCc4ccc(CCC(=O)O)cc4)nc32)[C@H](O)[C@@H]1O` [CGS21680, 2-[p-(2-carboxyethyl)phenylamino]-50-N-ethylcarboxyamide adenosine], the “effect on Aβ25-35 induced toxicity” value in test [1] is “no significant effect”. On to `OC[C@H]1O[C@@H](n2cnc3c(NC4CCCC4)ncnc32)[C@H](O)[C@@H]1O` [CPA, N^6-cyclopentyladenosine], for which, in test [1], the “effect on Aβ25-35 induced toxicity” value is “no significant effect”.

As for `N[C@H](C(=O)O)c1cc(O)cc(O)c1` [DHPG, (S)-3,5-dihydroxyphenylglycine], the “effect on Aβ25-35 induced toxicity” value in test [1] is listed as “no significant effect”. Same read-out and setting: the result for `CCCn1c(=O)c2[nH]c(C3CCCC3)nc2n(CCC)c1=O` [DPCPX, 8-Cyclopentyl-1,3-dipropylxanthine] reads “no significant effect; also recorded: ineffective”. As to `CO[C@H]1CC[C@@H](C(=O)c2ccc3nc4c(cc3c2)CCCO4)CC1` [JNJ 16259685, (3,4-Dihydro-2H-pyrano[2,3-b]quinolin-7-yl)-(cis-4-methoxycyclohexyl)-methanone], the “effect on DHPG-elicited PLC stimulation” value in test [2] (0.5 µM) is “blocked DHPG-elicited PLC stimulation”. As for `Cc1cccc(C#Cc2ccccc2)n1.Cl` [MPEP, 2-Methyl-6-(phenylethynyl)pyridine hydrochloride], in test [2] (1 µM), the “effect on DHPG-elicited PLC stimulation” value is “blocked DHPG-elicited PLC stimulation”. Turning to `Nc1nc(NCCc2ccc(O)cc2)nc2nc(-c3ccco3)nn12` [ZM241385, 4-(2-[7-Amino-2-(2-furyl) [1,2,4]triazolo [2,3-a] [1,3,5]triazin-5-ylamino]ethyl)phenol], the “effect on Aβ25-35 induced toxicity” value in test [1] is reported as “no significant effect”. In the case of “Aβ1-42: whole amyloid β peptide, kept 24 h at 37 °C to promote aggregation; positive control”, in the test with rat cortical neurons, the cell viability result is recorded as “decrease in cell viability”.
